# Assay results taken from patent publication US9487476B2, “Catechol diethers as potent anti-HIV agents” (priority 2011, dated 2016).
# Like-named read-outs stand apart in the source and are kept apart here.
# Tests used:
# Format in all cases: cell-based
# WT HIV-1 (IIIB strain) = test: Anti-HIV-1 activity, protection of infected MT-2 cells (MTT)
# MT-2 human T-cells = test: Cytotoxicity, inhibition of MT-2 cell growth
# [1] = system: HIV-1 variant containing the Y181C (Tyr181Cys) mutation; test: Anti-HIV-1 activity against variant strain in MT-2 cells (MTT); conditions: Human immunodeficiency virus 1, MT2, read-out: EC50 Y181C
# [2] = system: HIV-1 variant containing the K103N/Y181C mutations; test: Anti-HIV-1 activity against double-mutant strain in MT-2 cells (MTT); conditions: Human immunodeficiency virus 1, MT2, read-out: EC50 K103N/Y181C
# [3] = Human immunodeficiency virus 1, IIIB, MT2, running text, read-out: EC50 against WT HIV-1
# [4] = Table 4, catechol diether derivatives, MT-2 cells, read-out: Anti-HIV-1 Activity (EC50)
SMILES,EC50 (WT HIV-1 (IIIB strain); [3]) [µM],CC50 (MT-2 human T-cells; human) [µM],further results
"Cc1ccc(OCCn2ccc(=O)[nH]c2=O)c(Cc2ccccc2)c1 [Compound 1, 1-(2-(2-benzyl-4-methylphenoxy)ethyl)pyrimidine-2,4(1H,3H)-dione]",5,,
"O=c1ccn(CCOc2ccc(Cl)cc2Cc2ccccc2)c(=O)[nH]1 [Compound 5, 1-(2-(2-benzyl-4-chlorophenoxy)ethyl)pyrimidine-2,4(1H,3H)-dione]",,23,
"O=c1ccn(CCOc2ccc(Cl)cc2Cc2ccccc2Cl)c(=O)[nH]1 [Compound 6, 1-(2-(4-chloro-2-(2-chlorobenzyl)phenoxy)ethyl)pyrimidine-2,4(1H,3H)-dione]",,28,
"O=c1ccn(CCOc2ccc(Cl)cc2Cc2cccc(Cl)c2)c(=O)[nH]1 [Compound 7, 1-(2-(4-chloro-2-(3-chlorobenzyl)phenoxy)ethyl)pyrimidine-2,4(1H,3H)-dione]",,11,
"O=c1ccn(CCOc2ccc(Cl)cc2Cc2ccc(Cl)cc2Cl)c(=O)[nH]1 [Compound 8, 1-(2-(4-chloro-2-(2,4-dichlorobenzyl)phenoxy)ethyl)pyrimidine-2,4(1H,3H)-dione]",,88,
"O=c1ccn(CCOc2ccc(Cl)cc2Cc2cc(Cl)cc(Cl)c2)c(=O)[nH]1 [Compound 9, 1-(2-(4-chloro-2-(3,5-dichlorobenzyl)phenoxy)ethyl)pyrimidine-2,4(1H,3H)-dione]",,10,
"O=c1ccn(CCOc2ccc(Cl)cc2Cc2cc(Cl)ccc2Cl)c(=O)[nH]1 [Compound 10, 1-(2-(4-chloro-2-(2,5-dichlorobenzyl)phenoxy)ethyl)pyrimidine-2,4(1H,3H)-dione]",,15,
"O=c1ccn(CCOc2ccc(Cl)cc2Cc2c(Cl)cccc2Cl)c(=O)[nH]1 [Compound 11, 1-(2-(4-chloro-2-(2,6-dichlorobenzyl)phenoxy)ethyl)pyrimidine-2,4(1H,3H)-dione]",,49,
"Cc1cn(CCOc2ccc(Cl)cc2Cc2ccccc2)c(=O)[nH]c1=O [Compound 12, 1-(2-(2-benzyl-4-chlorophenoxy)ethyl)-5-methylpyrimidine-2,4(1H,3H)-dione]",,22,
"O=c1[nH]c(=O)n(CCOc2ccc(Cl)cc2Cc2ccccc2)cc1F [Compound 13, 1-(2-(2-benzyl-4-chlorophenoxy)ethyl)-5-fluoropyrimidine-2,4(1H,3H)-dione]",,27,
"O=c1[nH]c(=O)n(CCOc2ccc(Cl)cc2Cc2ccccc2)cc1Cl [Compound 14, 1-(2-(2-benzyl-4-chlorophenoxy)ethyl)-5-chloropyrimidine-2,4(1H,3H)-dione]",,21,
"O=c1ccn(CCOc2cc(Cl)ccc2Cc2ccccc2Cl)c(=O)[nH]1 [Compound 15, 1-(2-(5-chloro-2-(2-chlorobenzyl)phenoxy)ethyl)pyrimidine-2,4(1H,3H)-dione]",,12,
"N#Cc1cc(C#N)cc(Oc2cc(Cl)ccc2OCCn2ccc(=O)[nH]c2=O)c1 [Compound 20, 5-(5-chloro-2-(2-(2,4-dioxo-3,4-dihydropyrimidin-1(2H)-yl)ethoxy)phenoxy)isophthalonitrile]",,,EC50 [1]: 21 µM; EC50 [2]: 2.2 µM
"N#Cc1cccc(Cl)c1Oc1cc(Cl)ccc1OCCn1ccc(=O)[nH]c1=O [Compound 21, 3-chloro-2-(5-chloro-2-(2-(2,4-dioxo-3,4-dihydropyrimidin-1(2H)-yl)ethoxy)phenoxy)benzonitrile]",,50,
"N#Cc1cc(Cl)cc(Oc2cc(Cl)ccc2OCCn2ccc(=O)[nH]c2=O)c1 [Compound 22, 3-chloro-5-(5-chloro-2-(2-(2,4-dioxo-3,4-dihydropyrimidin-1(2H)-yl)ethoxy)phenoxy)benzonitrile]",,,EC50 [1]: 6.7 µM; EC50 [2]: 1.2 µM
"N#Cc1ccc(Cl)c(Oc2ccc(Cl)cc2OCCn2ccc(=O)[nH]c2=O)c1 [Compound 23, 4-chloro-3-(4-chloro-2-(2-(2,4-dioxo-3,4-dihydropyrimidin-1(2H)-yl)ethoxy)phenoxy)benzonitrile]",,60,
"N#Cc1cc(C#N)cc(Oc2ccc(Cl)cc2OCCn2ccc(=O)[nH]c2=O)c1 [Compound 24, 5-(4-chloro-2-(2-(2,4-dioxo-3,4-dihydropyrimidin-1(2H)-yl)ethoxy)phenoxy)isophthalonitrile]",,> 100,
"N#Cc1cc(Cl)cc(Oc2ccc(Cl)cc2OCCn2ccc(=O)[nH]c2=O)c1 [Compound 25, 3-chloro-5-(4-chloro-2-(2-(2,4-dioxo-3,4-dihydropyrimidin-1(2H)-yl)ethoxy)phenoxy)benzonitrile]",0.014,> 100,"EC50 [1]: 0.52 µM; EC50 [2]: 1.7 µM; cytotoxicity, limit of the tested concentration range (MT-2 human T-cells; human): > 100 µM"
"N#Cc1cc(Cl)cc(Oc2ccc(Cl)cc2OCCn2cc(F)c(=O)[nH]c2=O)c1 [Compound 26, 3-chloro-5-(4-chloro-2-(2-(5-fluoro-2,4-dioxo-3,4-dihydropyrimidin-1(2H)-yl)ethoxy)phenoxy)benzonitrile]",,,EC50 [1]: 0.62 µM; EC50 [2]: 1.7 µM
"N#Cc1cc(Cl)cc(Oc2ccc(C#N)cc2OCCn2ccc(=O)[nH]c2=O)c1 [Compound 28, 4-(3-chloro-5-cyanophenoxy)-3-(2-(2,4-dioxo-3,4-dihydropyrimidin-1(2H)-yl)ethoxy)benzonitrile]",,> 100,

SMILES,EC50 (WT HIV-1 (IIIB strain); [3]) [µM],CC50 (MT-2 human T-cells; human) [µM],further results
"N#Cc1cc(Cl)cc(Oc2ccc(C#N)cc2OCCn2cc(Cl)c(=O)[nH]c2=O)c1 [Compound 29, 3-(2-(5-chloro-2,4-dioxo-3,4-dihydropyrimidin-1(2H)-yl)ethoxy)-4-(3-chloro-5-cyanophenoxy)benzonitrile]",,94,
"N#Cc1ccc(Oc2ccccc2Cl)c(OCCn2ccc(=O)[nH]c2=O)c1 [Compound 30, 4-(2-chlorophenoxy)-3-(2-(2,4-dioxo-3,4-dihydropyrimidin-1(2H)-yl)ethoxy)benzonitrile]",0.27,> 100,
"N#Cc1ccc(Oc2cc(Cl)ccc2Cl)c(OCCn2ccc(=O)[nH]c2=O)c1 [Compound 31, 4-(2,5-dichlorophenoxy)-3-(2-(2,4-dioxo-3,4-dihydropyrimidin-1(2H)-yl)ethoxy)benzonitrile]",0.043,,EC50 [1]: 0.92 µM; EC50 [2]: 2.8 µM
"N#Cc1ccc(Oc2cc(Cl)cc(Cl)c2)c(OCCn2ccc(=O)[nH]c2=O)c1 [Compound 32, 4-(3,5-dichlorophenoxy)-3-(2-(2,4-dioxo-3,4-dihydropyrimidin-1(2H)-yl)ethoxy)benzonitrile]",0.02,,EC50 [1]: 0.8 µM; EC50 [2]: > 43 µM
"N#Cc1ccc(Oc2cc(Cl)ccc2Cl)c(OCCc2ccncc2)c1 [Compound 33, 4-(2,5-dichlorophenoxy)-3-(2-(pyridin-4-yl)ethoxy)benzonitrile]",0.76,,
N#Cc1ccc(Oc2cc(Cl)ccc2Cl)c(OCc2ccncc2)c1 [Compound 34],12,,
"N#Cc1ccc(Oc2cc(Cl)ccc2Cl)c(COCc2ccncc2)c1 [Compound 35, 4-(2,5-dichlorophenoxy)-3-((pyridin-4-ylmethoxy)methyl)benzonitrile]",1.8,,
"COc1cc(Cl)ccc1Oc1cc(Cl)cc(C#N)c1 [Compound 36, 3-chloro-5-(4-chloro-2-methoxyphenoxy)benzonitrile]",9.9,,
"N#C/C=C/c1cccc(Oc2ccc(C#N)cc2OCCn2ccc(=O)[nH]c2=O)c1 [Compound 40, (E)-4-(3-(2-cyanovinyl)phenoxy)-3-(2-(2,4-dioxo-3,4-dihydropyrimidin-1(2H)-yl)ethoxy)benzonitrile]",0.015,,EC50 [1]: 0.98 µM; EC50 [2]: 8 µM
"N#C/C=C/c1cccc(Oc2ccc(Cl)cc2OCCn2ccc(=O)[nH]c2=O)c1 [Compound 41, (E)-3-(3-(4-chloro-2-(2-(2,4-dioxo-3,4-dihydropyrimidin-1(2H)-yl)ethoxy)phenoxy)phenyl)acrylonitrile]",0.005,,EC50 [1]: 0.37 µM; EC50 [2]: 1.6 µM
"N#Cc1cc(F)c(Oc2ccccc2Cl)c(OCCn2ccc(=O)[nH]c2=O)c1 [Compound 44, 4-(2-chlorophenoxy)-3-(2-(2,4-dioxo-3,4-dihydropyrimidin-1(2H)-yl)ethoxy)-5-fluorobenzonitrile]",0.16,> 100,
"O=c1ccn(CCOc2cc(Cl)cc(Cl)c2Oc2ccccc2Cl)c(=O)[nH]1 [Compound 45, 1-(2-(3,5-dichloro-2-(2-chlorophenoxy)phenoxy)ethyl)pyrimidine-2,4(1H,3H)-dione]",0.83,13,
"COCCOc1cccc(Oc2ccc(C#N)cc2OCCn2ccc(=O)[nH]c2=O)c1 [Compound 46, 3-(2-(2,4-dioxo-3,4-dihydropyrimidin-1(2H)-yl)ethoxy)-4-(3-(2-methoxyethoxy)phenoxy)benzonitrile]",0.54,> 100,
"N#Cc1ccc(Oc2cccc(OCCCO)c2)c(OCCn2ccc(=O)[nH]c2=O)c1 [Compound 47, 3-(2-(2,4-dioxo-3,4-dihydropyrimidin-1(2H)-yl)ethoxy)-4-(3-(3-hydroxypropoxy)phenoxy)benzonitrile]",1.8,> 100,
N#C/C=C/c1cc(F)cc(Oc2ccc(Br)cc2OCCn2ccc(=O)[nH]c2=O)c1 [JLJ511],,,EC50 (WT HIV-1 (IIIB strain); [4]): 0.0018 µM; CC50 (MT-2 human T-cells): 15 µM
N#C/C=C/c1cc(Br)cc(Oc2ccc(Cl)cc2OCCn2ccc(=O)[nH]c2=O)c1 [JLJ518],,,EC50 (WT HIV-1 (IIIB strain); [4]): 0.0052 µM; CC50 (MT-2 human T-cells): 80 µM
N#C/C=C/c1cc(F)cc(Oc2ccc(OCCN3CCOCC3)cc2OCCn2ccc(=O)[nH]c2=O)c1 [JLJ526],,,EC50 (WT HIV-1 (IIIB strain); [4]): 0.52 µM; CC50 (MT-2 human T-cells): 27 µM
N#C/C=C/c1cc(Cl)cc(Oc2ccc(OCCN3CCOCC3)cc2OCCn2ccc(=O)[nH]c2=O)c1 [JLJ530],,,EC50 (WT HIV-1 (IIIB strain); [4]): 1.1 µM; CC50 (MT-2 human T-cells): 100 µM
N#C/C=C/c1cc(Cl)cc(Oc2ccc(Br)cc2OCCn2ccc(=O)[nH]c2=O)c1 [JLJ531],,,EC50 (WT HIV-1 (IIIB strain); [4]): 0.0091 µM; CC50 (MT-2 human T-cells): 13 µM
